Like-named read-outs stand apart in the source and are kept apart here.
How the values were obtained:
[1] = assay type: physicochemical
Experimental: Under ambient conditions the monohydrate of the meloxicam-meglumin salt is the stable modification, but at a relative humidity of over 75% a dihydrate is formed. The enclosed water can only be eliminated from the dihydrate under conditions of very great dryness. […] By intensive drying over a fairly long period the anhydrous form changes more and more into an amorphous form and after 24 h at 100° C. the material is totally amorphous.
The relevant parameters of the dehydration process are the temperature and duration of dehydration, the influence of which were observed by X-ray powder diffraction. The longer the dehydration process lasts, the less crystalline is the resulting material. […] The X-ray powder diffraction diagrams obtained after 1 hour at 80° C., 15 hours at 70° C., 20 hours at 80° C. and 24 hours at 100° C. are shown in FIG. 7.

[2] = Saturation solubility of meloxicam and its salts in various dissolving media; assay type: physicochemical; conditions: 0.1 N hydrochloric acid, pH 1, simulated gastric fluid, read-out: Solubility at ambient temperature
[3] = depending on the formulation; cited from earlier work
[4] = cited from earlier work

CNC[C@H](O)[C@@H](O)[C@H](O)[C@H](O)CO.Cc1cnc(NC(=O)C2=C(O)c3ccccc3S(=O)(=O)N2C)s1.O [Example 1, Meloxicam Meglumin Salt Monohydrate]
hygroscopic properties [1]: hygroscopic | solid-state change on dehydration (X-ray powder diffraction) ([1]; 24 hours at 100° C.): anhydrous and totally amorphous | solid-state change on dehydration (X-ray powder diffraction) ([1]; one hour at 80° C.): no change can be detected

CNC[C@H](O)[C@@H](O)[C@H](O)[C@H](O)CO.Cc1cnc(NC(=O)C2=C(O)c3ccccc3S(=O)(=O)N2C)s1 [Example 3, Anhydrous Meloxicam Meglumin Salt]
stability of the anhydrous form after dehydration [1]: very rapidly absorbs water to form the monohydrate form

Cc1cnc(NC(=O)C2=C(O)c3ccccc3S(=O)(=O)N2C)s1 [Meloxicam, 4-hydroxy-2-methyl-N-(5-methyl-2-thiazolyl)-2H-1,2-benzothiazine-3-carboxamide-1,1-dioxide]
solubility thermodynamic [2]: 0.9 µg/mL | time to maximum plasma levels [3]: 2 to 8 h

ibuprofen-lysinate
time after administration to peak-plasma level ([4]; 8 fasting test subjects, ibuprofen-lysinate 1000 mg film-coated tablet, ibuprofenic acid 600 mg sugar-coated tablet): 0.55 h | time after administration to peak-plasma level ([4]; non-fasting test subjects): 1.18 h
